Source: ChEMBL document CHEMBL1138397, “New C25 carbamate rifamycin derivatives are resistant to inactivation by ADP-ribosyl transferases” (2007)
In brackets after ≈: the same amount, converted by molar mass.

Assays:
[1] = tested on: Escherichia coli; assay: Ratio of MIC for Arr-2 positive Escherichia coli CGSC 5163 lpxC101 mutant bearing pCTV104 to MIC for Arr-2 negative Escherichia coli CGSC 5163 lpxC101 mutant bearing pCTV104P; type: functional
[2] = tested on: Staphylococcus aureus; assay: Antimicrobial activity against rifampin-sensitive Staphylococcus aureus ATCC 29213; type: functional
[3] = tested on: Staphylococcus aureus; assay: Antimicrobial activity against rifampin-resistant Staphylococcus aureus ATCC 29213 rpoB (His481Tyr) mutant; type: functional
[4] = tested on: Mycolicibacterium smegmatis; assay: Antimicrobial activity against Arr-1 positive Mycobacterium smegmatis DSM 43756; type: functional
[5] = tested on: Mycolicibacterium smegmatis; assay: Antimicrobial activity against Arr-1 negative Mycobacterium smegmatis DSM 43756Kml; type: functional
[6] = tested on: Mycolicibacterium smegmatis; assay: Ratio of MIC for Arr-1 positive Mycobacterium smegmatis DSM 43756 to MIC for Arr-1 negative Mycobacterium smegmatis DSM 43756Kml; type: functional
[7] = tested on: Escherichia coli; assay: Antimicrobial activity against Arr-2 positive Escherichia coli DH5-alpha bearing pCTF104; type: functional; details: DH5alpha
[8] = tested on: Escherichia coli; assay: Antimicrobial activity against Arr-2 negative Escherichia coli DH5alpha bearing pCTF104P; type: functional
[9] = tested on: Escherichia coli; assay: Ratio of MIC for Arr-2 positive Escherichia coli DH5-alpha bearing pCTF104 to MIC for Arr-2 negative Escherichia coli DH5-alpha bearing pCTF104P; type: functional, DH5alpha
[10] = tested on: Escherichia coli; assay: Antimicrobial activity against Arr-2 positive Escherichia coli CGSC 5163 lpxC101 mutant bearing pCTV104; type: functional
[11] = tested on: Escherichia coli; assay: Antimicrobial activity against Arr-2 negative Escherichia coli CGSC 5163 lpxC101 mutant bearing pCTV104P; type: functional

| Compound | Ratio [1] | MIC [2] [µg/mL] | MIC [3] [µg/mL] | MIC [4] [µg/mL] | MIC [5] [µg/mL] | Ratio [6] | MIC [7] [µg/mL] | MIC [8] [µg/mL] | Ratio [9] | MIC [10] [µg/mL] | MIC [11] [µg/mL] |
| --- | --- | --- | --- | --- | --- | --- | --- | --- | --- | --- | --- |
| CO[C@H]1/C=C/O[C@@]2(C)Oc3c(C)c(O)c4c(c3C2=O)C(=O)C(N2CCOCC2)=C(NC(=O)/C(C)=C\C=C\[C@H](C)[C@H](O)[C@@H](C)[C@@H](O)[C@@H](C)[C@H](OC(=O)NCCN(C)C)[C@@H]1C)C4=O | 1 | 0.006 (≈ 0.00703 µM) | > 63 | 0.5 (≈ 0.586 µM) | 0.12 (≈ 0.141 µM) | 4 | 8 (≈ 9.38 µM) | 4 (≈ 4.69 µM) | 2 | 0.24 (≈ 0.281 µM) | 0.24 (≈ 0.281 µM) |
| CO[C@H]1/C=C/O[C@@]2(C)Oc3c(C)c(O)c4c(c3C2=O)C(=O)C(N2CCOCC2)=C(NC(=O)/C(C)=C\C=C\[C@H](C)[C@H](O)[C@@H](C)[C@@H](O)[C@@H](C)[C@H](OC(=O)NCc2ccc(C(F)(F)F)cc2)[C@@H]1C)C4=O | 2 | 0.03 (≈ 0.0319 µM) |  | 0.12 (≈ 0.128 µM) | ≤ 0.03 | >4 | > 250 | > 250 |  | 1 (≈ 1.06 µM) | 0.5 (≈ 0.532 µM) |
| COc1ccc(CNC(=O)O[C@H]2[C@H](C)[C@H](O)[C@H](C)[C@@H](O)[C@@H](C)/C=C/C=C(/C)C(=O)NC3=C(N4CCOCC4)C(=O)c4c(c(O)c(C)c5c4C(=O)[C@@](C)(O/C=C/[C@H](OC)[C@H]2C)O5)C3=O)cc1 | 1 | 0.016 (≈ 0.0177 µM) | 4 (≈ 4.43 µM) | 0.06 (≈ 0.0665 µM) | 0.03 (≈ 0.0333 µM) | 2 | > 250 | 16 (≈ 17.7 µM) | >16 | 0.5 (≈ 0.554 µM) | 0.5 (≈ 0.554 µM) |
| CO[C@H]1/C=C/O[C@@]2(C)Oc3c(C)c(O)c4c(c3C2=O)C(=O)C(N2CCOCC2)=C(NC(=O)/C(C)=C\C=C\[C@H](C)[C@H](O)[C@@H](C)[C@@H](O)[C@@H](C)[C@H](OC(=O)NCCO)[C@@H]1C)C4=O | 16 | 0.016 (≈ 0.0194 µM) | 16 (≈ 19.4 µM) | 8 (≈ 9.69 µM) | 2 (≈ 2.42 µM) | 4 | > 250 | 8 (≈ 9.69 µM) | >32 | 8 (≈ 9.69 µM) | 0.5 (≈ 0.605 µM) |
| CO[C@H]1/C=C/O[C@@]2(C)Oc3c(C)c(O)c4c(c3C2=O)C(=O)C(N2CCOCC2)=C(NC(=O)/C(C)=C\C=C\[C@H](C)[C@H](O)[C@@H](C)[C@@H](O)[C@@H](C)[C@H](OC(=O)NCc2ccc(N(C)C)cc2)[C@@H]1C)C4=O | 16 | 0.06 (≈ 0.0656 µM) | > 63 | 0.06 (≈ 0.0656 µM) | 0.06 (≈ 0.0656 µM) | 1 | > 250 | 63 (≈ 68.8 µM) | >4 | 16 (≈ 17.5 µM) | 1 (≈ 1.09 µM) |
| CO[C@H]1/C=C/O[C@@]2(C)Oc3c(C)c(O)c4c(O)c(c(/C=N/N5CCN(C)CC5)c(O)c4c3C2=O)NC(=O)/C(C)=C\C=C\[C@H](C)[C@H](O)[C@@H](C)[C@@H](O)[C@@H](C)[C@H](OC(C)=O)[C@@H]1C [RIFAMPIN] | 32 | 0.008 (≈ 0.00972 µM) | > 63 | 32 (≈ 38.9 µM) | 0.5 (≈ 0.608 µM) | 64 | > 250 | 8 (≈ 9.72 µM) | >32 | 8 (≈ 9.72 µM) | 0.24 (≈ 0.292 µM) |
| CNC(=O)O[C@H]1[C@H](C)[C@H](O)[C@H](C)[C@@H](O)[C@@H](C)/C=C/C=C(/C)C(=O)NC2=C(N3CCOCC3)C(=O)c3c(c(O)c(C)c4c3C(=O)[C@@](C)(O/C=C/[C@H](OC)[C@H]1C)O4)C2=O | 32 | 0.004 (≈ 0.00503 µM) | 4 (≈ 5.03 µM) | 4 (≈ 5.03 µM) | 0.5 (≈ 0.628 µM) | 8 | > 250 | 8 (≈ 10.1 µM) | >32 | 16 (≈ 20.1 µM) | 0.5 (≈ 0.628 µM) |
| C=CCNC(=O)O[C@H]1[C@H](C)[C@H](O)[C@H](C)[C@@H](O)[C@@H](C)/C=C/C=C(/C)C(=O)NC2=C(N3CCOCC3)C(=O)c3c(c(O)c(C)c4c3C(=O)[C@@](C)(O/C=C/[C@H](OC)[C@H]1C)O4)C2=O | 16 | 0.004 (≈ 0.00487 µM) |  | 2 (≈ 2.43 µM) | 0.06 (≈ 0.073 µM) | >32 | > 250 | 8 (≈ 9.73 µM) | >32 | 4 (≈ 4.87 µM) | 0.24 (≈ 0.292 µM) |
| CO[C@H]1/C=C/O[C@@]2(C)Oc3c(C)c(O)c4c(c3C2=O)C(=O)C(N2CCOCC2)=C(NC(=O)/C(C)=C\C=C\[C@H](C)[C@H](O)[C@@H](C)[C@@H](O)[C@@H](C)[C@H](OC(=O)N2CCOCC2)[C@@H]1C)C4=O | 1 | 0.03 (≈ 0.0352 µM) |  | 2 (≈ 2.35 µM) | 1 (≈ 1.17 µM) | 2 | 63 (≈ 73.9 µM) | 31 (≈ 36.4 µM) | 2 | 1 (≈ 1.17 µM) | 1 (≈ 1.17 µM) |
| COc1ccccc1-c1cc(CNC(=O)O[C@H]2[C@H](C)[C@H](O)[C@H](C)[C@@H](O)[C@@H](C)/C=C/C=C(/C)C(=O)NC3=C(N4CCOCC4)C(=O)c4c(c(O)c(C)c5c4C(=O)[C@@](C)(O/C=C/[C@H](OC)[C@H]2C)O5)C3=O)on1 | 2 | 0.06 (≈ 0.0619 µM) |  | 0.12 (≈ 0.124 µM) | 0.12 (≈ 0.124 µM) | 1 | > 250 | > 250 |  | 2 (≈ 2.06 µM) | 1 (≈ 1.03 µM) |
| CO[C@H]1/C=C/O[C@@]2(C)Oc3c(C)c(O)c4c(c3C2=O)C(=O)C(N2CCOCC2)=C(NC(=O)/C(C)=C\C=C\[C@H](C)[C@H](O)[C@@H](C)[C@@H](O)[C@@H](C)[C@H](OC(=O)NCc2cc(-c3ccccn3)no2)[C@@H]1C)C4=O |  | 0.008 (≈ 0.00851 µM) | > 63 | 0.5 (≈ 0.532 µM) | 0.5 (≈ 0.532 µM) | 1 | 4 (≈ 4.26 µM) | 4 (≈ 4.26 µM) | 1 | 2 (≈ 2.13 µM) | 2 (≈ 2.13 µM) |
| CO[C@H]1/C=C/O[C@@]2(C)Oc3c(C)c(O)c4c(c3C2=O)C(=O)C(N2CCOCC2)=C(NC(=O)/C(C)=C\C=C\[C@H](C)[C@H](O)[C@@H](C)[C@@H](O)[C@@H](C)[C@H](OC(=O)NCc2cccc(Cl)c2)[C@@H]1C)C4=O | 2 | 0.008 (≈ 0.00883 µM) | > 63 | 0.12 (≈ 0.132 µM) | ≤ 0.03 | >4 | > 250 | > 250 |  | 0.5 (≈ 0.552 µM) | 0.24 (≈ 0.265 µM) |
| CO[C@H]1/C=C/O[C@@]2(C)Oc3c(C)c(O)c4c(c3C2=O)C(=O)C(N2CCOCC2)=C(NC(=O)/C(C)=C\C=C\[C@H](C)[C@H](O)[C@@H](C)[C@@H](O)[C@@H](C)[C@H](OC(=O)N2CCC(NCc3ccccc3)CC2)[C@@H]1C)C4=O | 1 | 0.03 (≈ 0.0314 µM) | > 63 | 0.12 (≈ 0.126 µM) | 0.12 (≈ 0.126 µM) | 1 | 16 (≈ 16.8 µM) | 8 (≈ 8.38 µM) | 2 | 0.24 (≈ 0.251 µM) | 0.24 (≈ 0.251 µM) |
